The values below are quoted from earlier work in paper PMC8356818 (Chemical Science, 2021).

For series [1] the following is noted: H4qp2 ligand, 25 °C.
The conditions of series [2]: direct stopped-flow measurements.
Assay in series [3]: not given
This is another data set of the same source.

Take `Oc1ccc(O)c(CN(CCN(Cc2ccccn2)Cc2cc(O)ccc2O)Cc2ccccn2)c1` [Complex H4qp2, N,N′-bis(2,5-dihydroxybenzyl)-N,N′-bis(2-pyridinylmethyl)-1,2-ethanediamine]: in series [1] (KL1 = [(H5qp2)^+][H^+]/[(H6qp2)^2+]), the pKL1 was 4.47 (±0.08). Besides, the pKL2 in series [1] (KL2 = [(H4qp2)][H^+]/[(H5qp2)^+]) is recorded as 7.18 (±0.03).
For `C[C@@H]1N[C@@H]2CCCC[C@H]2NCCN[C@@H]2CCCC[C@H]2N[C@@H](C)c2cccc1n2.[Cl-].[Cl-].[Mn+2]` [Complex M40401], in series [2], the catalytic rate result is “approximately 1.5 × 10^9 M^−1 s^−1”. In addition, the pMn (stability in water) is recorded as 4.7.
Consider Mn^IIBr8TM-4-PyP^4+, for which the “estimated log kcat if the catalyst were fully intact” value in series [3] was “exceed 8.67”. The log kcat in series [3] (determined by the cytochrome c assay) is 8.34. The “Mn estimated to be lost (release of free manganese)” value (neutral pH) is on record as “approximately 30%”.
